Test results from ChEMBL document CHEMBL5042510, “Structure-Guided Discovery of Aminoquinazolines as Brain-Penetrant and Selective LRRK2 Inhibitors” (J Med Chem, 2022).

Experiments:
[1] = Oral bioavailability in Wistar Han rat at 5 mg/kg by LC-MS/MS analysis; type: ADME, organism-based; settings: in vivo
[2] = Unbound brain-to-plasma concentration ratio in rat at 2.5 uM incubated for 4 hrs by equilibrium dialysis method; type: ADME, cell-free; settings: brain and plasma (unbound), read-out: K(p,uu,brain)
[3] = system: rat Mdr1a (P-gp); assay: Apparent permeability from apical to basolateral side in rat Mdr1a-transfected pig LLC-PK1 cells at 0.1 to 1 uM measured after 3 hrs by LC/MS/MS analysis; type: ADME, cell-based, Sus scrofa; settings: dose 0.1-1 µM
[4] = Total plasma clearance in Wistar Han rat at 2 mg/kg, iv by LC-MS/MS analysis; type: ADME, organism-based
[5] = Intrinsic clearance in Wistar Han rat at 2 mg/kg, iv by LC-MS/MS analysis; type: ADME, organism-based; settings: in vivo
[6] = MRT in Wistar Han rat at 2 mg/kg, iv by LC-MS/MS analysis; type: ADME, organism-based; settings: in vivo
[7] = Oral bioavailability in Beagle dog at 0.5 mg/kg by LC-MS/MS analysis; type: ADME, organism-based, Canis lupus familiaris; settings: in vivo
[8] = system: Salmonella typhimurium; assay: Mutagenicity in Salmonella typhimurium TA98 at 30 to 5000 ug incubated for 48 hrs in presence of liver S9 fraction by AMES test; type: toxicity, organism-based, Salmonella enterica subsp. enterica serovar Typhimurium; settings: s9, 48 h, dose 30-5000 µg
[9] = Oral bioavailability in Rhesus monkey at 2 mg/kg by LC-MS/MS analysis; type: ADME, organism-based, Macaca mulatta; settings: in vivo
[10] = Unbound fraction in CD rat plasma at 1 to 100 mg/kg, po measured after 120 mins by LC/MS/MS analysis; type: ADME, organism-based; settings: in vivo, 2 h, dose 1-100 mg/kg
[11] = Inhibition of adenosine transporter (unknown origin); parameters: species or system Homo sapiens
[12] = Genotoxicity in CHO-WBL cells incubated for 3 hrs in presence of liver S9 extract by invitro micronucleus test; type: toxicity, Cricetulus griseus; settings: chinese hamster, s9, 3 h
[13] = Unbound brain-to-plasma concentration ratio in rat at 10 mg/kg, po qd for 4 days by LC/MS/MS analysis; type: ADME, organism-based; settings: brain and plasma (unbound), time 4 day, read-out: K(p,uu,brain)
[14] = AUC in rat at 10 to 400 mg/kg, po qd for 4 days by LC/MS/MS analysis; type: ADME, organism-based; parameters: time 4 day; settings: in vivo, 96 h, dose 10-400 mg/kg
[15] = Toxicity in rat assessed as induction of liver injury at 40 to 400 mg/kg, po qd administered for 4 days; type: organism-based; settings: in vivo, 96 h, dose 40-400 mg/kg, time 4 day
[16] = system: GSTA5; assay: Toxicity in rat assessed as fold increase in GSTA5 transcriptional activity in liver at 75 mg/kg, po bid administered for 4 days relative to control; type: organism-based; settings: time 4 day, read-out: FC
[17] = Toxicity in rat assessed as elevation of PXR gene expression at 10 to 75 mg/kg, po bid administered for 4 days; type: organism-based; settings: in vivo, 96 h, dose 10-75 mg/kg, time 4 day
[18] = Toxicity in rat assessed as elevation of AhR gene expression at 10 to 75 mg/kg, po bid administered for 4 days; type: organism-based; settings: in vivo, 96 h, dose 10-75 mg/kg, time 4 day
[19] = In vivo inhibition of LRRK2 in CD rat assessed as reduction in phosphorylation at Ser935 residue in striatum at 100 mg/kg, po measured after 2 hrs by MSD assay; type: functional
[20] = Toxicity in rat assessed as fold increase in serum ALP levels at 150 mg/kg, po qd administered for 4 days; type: organism-based; settings: in vivo, 96 h, time 4 day

O[C@H]1COC[C@H]1N1CC[C@@H](c2cc3nc(Nc4cnn([C@@H]5CC5(F)F)c4Cl)ncc3cc2Cl)[C@H](F)C1
bioavailability [1]: 83% | Kp uu at 4 h, 2.5 µM [2]: 0.36 | Papp A→B at 3 h, up to 1 µM [3]: 30 ×10⁻⁶ cm/s | clearance [4]: 19 mL/min/kg | CL [5]: 1278 mL/min/kg | MRT [6]: 3.9 h | bioavailability [7]: 79% | Activity [8]: Non-Toxic | bioavailability [9]: 18% | Cp(f) [10]: 10.14 nM | IC50 [11]: 9.6 µM | Activity [12]: Non-Toxic | Kp uu at 96 h [13]: 0.67 | AUC [14]: 99 µM·h | Activity [15]: Non-Toxic | fold induction at 96 h [16]: 5 | Activity [17]: Non-Toxic | Activity [18]: Non-Toxic | inhibition in vivo at 100 mg/kg [19]: 97% | fold change (FC) [20]: 2
